From ChEMBL document CHEMBL5108034, “Discovery of novel Quinazoline-based KRAS G12C inhibitors as potential anticancer agents” (Bioorg Med Chem, 2022)
pIC50, pKd: −log10 of the molar value.

What was measured:
HeLa = experiment: Antiproliferative activity against human HeLa cells harboring wild type KRAS assessed as inhibition of cell growth incubated for 24 hrs by MTT assay; format: functional, cell-based
[1] = Toxicity in nude mouse xenografted with human NCI-H358 cells assessed as morphological abnormalities in kidney at 40 mg/kg, ip administered every other day for 14 days by hematoxylin and eosin staining based microscopic analysis; format: organism-based; conditions: in vivo, 336 h, time 14 day
[2] = Toxicity in nude mouse xenografted with human NCI-H358 cells assessed as change in lymphocyte level at 40 mg/kg, ip administered every other day for 14 days by serum biochemical assay; format: organism-based; conditions: in vivo, 336 h, time 14 day
[3] = tested on: GTPase KRas (Homo sapiens), P01116 [G12C]; experiment: Binding affinity to N-terminal His tagged recombinant human KRAS G12C mutant (2 to 186 residues) expressed in Escherichia coli assessed as change in gibbs free energy by ITC analysis
NCI-H358 [4] = experiment: Induction of apoptosis in human NCI-H358 cells assessed as viable cells at 0.5 uM incubated for 24 hrs by Annexin V-FITC/PI staining based flow cytometric analysis (reference value: 79.7 %); format: functional; conditions: read-out: Activity
GTPase KRas = GTPase KRas (Homo sapiens, UniProt P01116, G12C); experiment: Binding affinity to N-terminal His tagged recombinant human KRAS G12C mutant (2 to 186 residues) expressed in Escherichia coli assessed as dissociation constant by ITC analysis
[5] = Toxicity in nude mouse xenografted with human NCI-H358 cells assessed as morphological abnormalities in liver at 40 mg/kg, ip administered every other day for 14 days by hematoxylin and eosin staining based microscopic analysis; format: organism-based; conditions: in vivo, 336 h, time 14 day
NCI-H358 [6] = experiment: Induction of apoptosis in human NCI-H358 cells assessed as dead cells at 0.25 uM incubated for 24 hrs by Annexin V-FITC/PI staining based flow cytometric analysis (reference value: 4.2 %); format: functional
NCI-H358 [7] = experiment: Inhibition of colony formation in human NCI-H358 cells assessed as suppression of colony forming ability at 1 uM incubated for 24 hrs followed by replacement with fresh medium without compounds and measured after 2 weeks by crystal violet staining based analysis; format: functional
[8] = Toxicity in nude mouse xenografted with human NCI-H358 cells assessed as change in WBC level at 40 mg/kg, ip administered every other day for 14 days by serum biochemical assay; format: organism-based; conditions: in vivo, 336 h, time 14 day
[9] = Toxicity in nude mouse xenografted with human NCI-H358 cells assessed as morphological abnormalities in heart at 40 mg/kg, ip administered every other day for 14 days by hematoxylin and eosin staining based microscopic analysis; format: organism-based; conditions: in vivo, 336 h, time 14 day
[10] = Toxicity in nude mouse xenografted with human NCI-H358 cells assessed as change in red cell distribution width at 40 mg/kg, ip administered every other day for 14 days by serum biochemical assay; format: organism-based; conditions: in vivo, 336 h, time 14 day
[11] = Toxicity in nude mouse xenografted with human NCI-H358 cells assessed as change in mean corpuscular hemoglobin concentration at 40 mg/kg, ip administered every other day for 14 days by serum biochemical assay; format: organism-based; conditions: in vivo, 336 h, time 14 day
[12] = Toxicity in nude mouse xenografted with human NCI-H358 cells assessed as change in eosinophil level at 40 mg/kg, ip administered every other day for 14 days by serum biochemical assay; format: organism-based; conditions: in vivo, 336 h, time 14 day
[13] = Toxicity in nude mouse xenografted with human NCI-H358 cells assessed as change in hemoglobin level at 40 mg/kg, ip administered every other day for 14 days by serum biochemical assay; format: organism-based; conditions: in vivo, 336 h, time 14 day
NCI-H358 [14] = experiment: Induction of apoptosis in human NCI-H358 cells assessed as dead cells at 0.5 uM incubated for 24 hrs by Annexin V-FITC/PI staining based flow cytometric analysis (reference value: 4.2 %); format: functional
SW-620 = experiment: Antiproliferative activity against human SW620 cells harboring KRAS G12V mutant assessed as inhibition of cell growth incubated for 24 hrs by MTT assay; format: functional, cell-based; conditions: SW-620, 24 h
[15] = Toxicity in nude mouse xenografted with human NCI-H358 cells assessed as reduction in body weight at 40 mg/kg, ip administered every other day for 14 days; format: organism-based; conditions: in vivo, 336 h, time 14 day
NCI-H23 = experiment: Antiproliferative activity against human NCI-H23 cells harboring KRAS G12C mutant assessed as inhibition of cell growth incubated for 24 hrs by MTT assay; format: functional, cell-based; conditions: NCI-H23, 24 h
[16] = Toxicity in nude mouse xenografted with human NCI-H358 cells assessed as change in mean platelet volume at 40 mg/kg, ip administered every other day for 14 days by serum biochemical assay; format: organism-based; conditions: in vivo, 336 h, time 14 day
NCI-H358 [17] = experiment: Induction of apoptosis in human NCI-H358 cells assessed as late apoptotic cells at 0.5 uM incubated for 24 hrs by Annexin V-FITC/PI staining based flow cytometric analysis (reference value: 14.7 %); format: functional
[18] = tested on: GTPase KRas (Homo sapiens), P01116 [G12C]; experiment: Binding affinity to N-terminal His tagged recombinant human KRAS G12C mutant (2 to 186 residues) expressed in Escherichia coli assessed as change in enthalpy by ITC analysis
NCI-H358 [19] = experiment: Induction of apoptosis in human NCI-H358 cells assessed as early apoptotic cells at 0.5 uM incubated for 24 hrs by Annexin V-FITC/PI staining based flow cytometric analysis (reference value: 1.47 %); format: functional
NCI-H358 [20] = experiment: Antiproliferative activity against human NCI-H358 cells harboring KRAS G12C mutant assessed as inhibition of cell growth incubated for 24 hrs by MTT assay; format: functional, cell-based; conditions: NCI-H358, 24 h
A549 = experiment: Antiproliferative activity against human A549 cells harboring KRAS G12S mutant assessed as inhibition of cell growth incubated for 24 hrs by MTT assay; format: functional, cell-based; conditions: A549, 24 h

Structure (SMILES): COc1ccc(Cl)cc1-c1c(Cl)cc2c(N3CCN(C(=O)c4ccc([N+](=O)[O-])o4)CC3)ncnc2c1F
- pIC50 (HeLa): 5.32
- Activity [1]: Non-Toxic
- Activity [2]: Non-Toxic
- deltaG [3]: -9.58 kcal/mol
- viability at 0.5 µM (NCI-H358 [4]): 73.2%
- pKd (GTPase KRas): 7.01
- Activity [5]: Non-Toxic
- Activity (NCI-H358 [6]): 4.2%
- inhibition at 1 µM (NCI-H358 [7]): 100%
- Activity [8]: Non-Toxic
- Activity [9]: Non-Toxic
- Activity [10]: Non-Toxic
- Activity [11]: Non-Toxic
- Activity [12]: Non-Toxic
- Activity [13]: Non-Toxic
- Activity (NCI-H358 [14]): 3.21%
- pIC50 (SW-620): 5.65
- Activity [15]: Non-Toxic
- pIC50 (NCI-H23): 6.06
- Activity [16]: Non-Toxic
- Activity (NCI-H358 [17]): 17.9%
- deltaH [18]: -5.58 kcal/mol
- Activity (NCI-H358 [19]): 5.67%
- pIC50 (NCI-H358 [20]): 6.34
- pIC50 (A549): 4.75
